The text below walks through data of patent publication US11370794B2, “Toll-like receptor antagonist compounds and methods of use” (Dynavax Technologies Corporation, priority 2016, dated 2022).

A value given as a limit tells only on which side of the number the result lay.

One assay addresses T1, TLR-4 (Homo sapiens, UniProt O00206+Q9Y6Y9).
T1 construct: related toll-like receptor family members and other nucleic acid intracellular signaling receptors in primary human leukocytes; endogenous in cells; host or cells: primary human leukocytes
Briefly: Receptor specificity in primary human leukocytes: TLR-4. The assay is classed as cell-based. How it is done:
(§1) Example B5—Receptor Specificity
(§2) Representative compounds were tested for antagonist activity against related toll-like receptor family members and other nucleic acid intracellular signaling receptors in primary human leukocytes. The compounds were Compound Nos. 5 and 9, and they were tested for their ability to inhibit human RIG-I, TLR-2, TLR-4, and TLR-5. With one exception, neither compound was able to inhibit these receptors greater than 50% at 10 μM.

The next assay has as its target T2, TLR-5 (Homo sapiens, UniProt O60602).
T2 construct: related toll-like receptor family members and other nucleic acid intracellular signaling receptors in primary human leukocytes; endogenous in cells; host or cells: primary human leukocytes
Description: Receptor specificity in primary human leukocytes: TLR-5. The class given is cell-based. The protocol:
as §1, §2

The target of another assay is T3, human RIG-I (Homo sapiens, UniProt O95786).
T3 construct: other nucleic acid intracellular signaling receptors in primary human leukocytes; endogenous in cells; host or cells: primary human leukocytes
T3 sequence (O95786 1-925): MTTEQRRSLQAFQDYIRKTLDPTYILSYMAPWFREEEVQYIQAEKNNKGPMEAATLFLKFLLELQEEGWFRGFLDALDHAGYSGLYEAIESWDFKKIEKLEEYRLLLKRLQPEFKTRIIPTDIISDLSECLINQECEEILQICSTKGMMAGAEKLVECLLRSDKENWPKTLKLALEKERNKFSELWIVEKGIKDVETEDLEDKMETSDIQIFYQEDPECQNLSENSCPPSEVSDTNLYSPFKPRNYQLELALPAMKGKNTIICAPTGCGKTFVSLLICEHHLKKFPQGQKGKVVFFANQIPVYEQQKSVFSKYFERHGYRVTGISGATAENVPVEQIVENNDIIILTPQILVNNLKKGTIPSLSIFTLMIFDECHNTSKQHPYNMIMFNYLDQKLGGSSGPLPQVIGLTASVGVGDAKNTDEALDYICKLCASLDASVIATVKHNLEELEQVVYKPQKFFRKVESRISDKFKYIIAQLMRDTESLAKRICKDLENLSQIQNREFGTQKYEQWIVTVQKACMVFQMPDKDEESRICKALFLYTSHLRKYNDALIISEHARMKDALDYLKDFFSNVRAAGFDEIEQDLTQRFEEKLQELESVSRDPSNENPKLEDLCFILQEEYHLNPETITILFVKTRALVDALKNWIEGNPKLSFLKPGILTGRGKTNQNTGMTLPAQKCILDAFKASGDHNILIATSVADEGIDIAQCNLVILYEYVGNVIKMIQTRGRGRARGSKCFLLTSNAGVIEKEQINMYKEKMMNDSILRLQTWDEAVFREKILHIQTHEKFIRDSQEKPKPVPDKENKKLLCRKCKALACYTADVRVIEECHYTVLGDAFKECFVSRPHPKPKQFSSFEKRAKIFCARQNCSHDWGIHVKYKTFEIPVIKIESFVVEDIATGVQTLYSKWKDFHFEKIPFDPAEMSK
Description: Receptor specificity in primary human leukocytes: RIG-I. The assay is classed as cell-based. The protocol: as §1, §2

The target of the next assay is T4, mouse TLR9 (Mus musculus, UniProt Q9EQU3).
T4 construct: Balb/c mice (Charles River); host or cells: Balb/c mice, in vivo
T4 sequence (Q9EQU3 26-1032): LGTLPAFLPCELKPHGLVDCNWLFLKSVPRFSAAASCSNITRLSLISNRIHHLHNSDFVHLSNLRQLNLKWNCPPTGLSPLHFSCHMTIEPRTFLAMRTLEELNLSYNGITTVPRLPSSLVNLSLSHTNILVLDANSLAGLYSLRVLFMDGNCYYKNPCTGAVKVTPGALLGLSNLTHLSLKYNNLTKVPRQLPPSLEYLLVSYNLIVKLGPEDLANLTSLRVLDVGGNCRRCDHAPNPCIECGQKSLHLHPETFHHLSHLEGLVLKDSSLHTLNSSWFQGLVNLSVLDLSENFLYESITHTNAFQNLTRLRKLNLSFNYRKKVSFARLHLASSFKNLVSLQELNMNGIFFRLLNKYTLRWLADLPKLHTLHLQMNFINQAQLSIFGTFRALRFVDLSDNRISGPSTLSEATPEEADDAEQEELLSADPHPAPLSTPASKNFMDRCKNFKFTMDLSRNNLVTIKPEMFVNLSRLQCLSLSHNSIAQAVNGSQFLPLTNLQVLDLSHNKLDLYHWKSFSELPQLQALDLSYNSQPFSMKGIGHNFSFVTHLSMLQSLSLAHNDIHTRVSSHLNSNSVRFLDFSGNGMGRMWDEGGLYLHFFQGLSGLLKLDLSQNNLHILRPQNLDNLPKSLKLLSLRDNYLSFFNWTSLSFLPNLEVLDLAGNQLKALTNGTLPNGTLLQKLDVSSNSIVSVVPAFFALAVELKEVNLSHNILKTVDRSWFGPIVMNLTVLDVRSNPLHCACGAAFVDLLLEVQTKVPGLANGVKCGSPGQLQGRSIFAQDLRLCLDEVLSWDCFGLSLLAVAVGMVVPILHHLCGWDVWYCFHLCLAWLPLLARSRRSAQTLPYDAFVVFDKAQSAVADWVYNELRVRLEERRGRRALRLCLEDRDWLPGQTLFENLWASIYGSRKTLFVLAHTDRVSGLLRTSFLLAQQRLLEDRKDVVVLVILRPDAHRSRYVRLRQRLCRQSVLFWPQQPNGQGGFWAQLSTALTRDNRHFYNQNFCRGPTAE
Description: Inhibition of mouse TLR9 in mouse acute challenge model over time (serum IL-12). The assay is classed as in vivo. Particulars: 5 mg/Kg intra-peritoneal, serum IL-12 two, four and twenty-four hours after agonist. The protocol:
Example B4-a—Inhibition of Mouse TLR9 in Mouse Acute Challenge Model Over Time
When administered a CpG-containing DNA oligonucleotide, mice respond in an acute manner with release of cytokines into the peripheral blood within 6 hours. The addition of an inhibitor against TLR9 will attenuate the response to the DNA oligonucleotide agonist, which can be measured through a reduction in serum cytokines.
Balb/c mice (Charles River). TLR9 agonist 1018 ISS, CpG-containing DNA oligonucleotide. Mouse interleukin (IL)-12p40 ELISA kit (BD Pharmingen Cat. No. 551219 and 554476).
Mice were injected by the intra-peritoneal dosing route with test compound at 5 mg/kg. Following injection of test compound, mice were injected with a TLR9 agonist (a CpG-containing DNA oligonucleotide) by the intra-peritoneal route to a final dose of approximately 2.5 mg/kg. Two, four and twenty-four hours following administration of the DNA oligonucleotide, blood was collected from mice and processed to serum. The serum was tested for the presence of IL-12 using an ELISA kit. The amount of IL-12 produced is a reflection of the amount of TLR9-dependent receptor activity.

T1 sequence (O00206 24-839): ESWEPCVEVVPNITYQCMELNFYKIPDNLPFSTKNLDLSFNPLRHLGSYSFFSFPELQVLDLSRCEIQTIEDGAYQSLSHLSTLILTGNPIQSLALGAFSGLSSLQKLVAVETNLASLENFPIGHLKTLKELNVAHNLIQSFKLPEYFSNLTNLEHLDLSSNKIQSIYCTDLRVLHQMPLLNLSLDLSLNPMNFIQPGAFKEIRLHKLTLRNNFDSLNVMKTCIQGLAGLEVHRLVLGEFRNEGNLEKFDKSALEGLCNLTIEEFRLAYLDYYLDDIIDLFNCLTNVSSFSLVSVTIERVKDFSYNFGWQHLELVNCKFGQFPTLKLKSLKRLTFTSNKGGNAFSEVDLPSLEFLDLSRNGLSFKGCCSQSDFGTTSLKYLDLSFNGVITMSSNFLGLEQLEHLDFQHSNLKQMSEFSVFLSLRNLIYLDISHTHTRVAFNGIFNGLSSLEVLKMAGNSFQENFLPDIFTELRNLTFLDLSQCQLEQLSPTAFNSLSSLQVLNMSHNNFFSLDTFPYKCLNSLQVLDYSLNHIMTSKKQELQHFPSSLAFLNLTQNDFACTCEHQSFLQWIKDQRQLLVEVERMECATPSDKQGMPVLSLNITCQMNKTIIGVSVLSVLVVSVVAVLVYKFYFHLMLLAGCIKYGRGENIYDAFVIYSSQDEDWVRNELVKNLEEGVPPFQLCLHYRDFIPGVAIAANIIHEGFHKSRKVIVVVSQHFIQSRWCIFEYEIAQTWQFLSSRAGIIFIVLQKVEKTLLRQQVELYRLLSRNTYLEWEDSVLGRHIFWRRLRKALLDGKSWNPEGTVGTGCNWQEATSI
T1 sequence (Q9Y6Y9 17-160 limits assumed): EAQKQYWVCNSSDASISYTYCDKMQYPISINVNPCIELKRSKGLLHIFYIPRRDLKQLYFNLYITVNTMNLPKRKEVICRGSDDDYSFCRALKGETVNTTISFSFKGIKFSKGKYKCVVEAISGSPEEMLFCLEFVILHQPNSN
T2 sequence (O60602 21-858): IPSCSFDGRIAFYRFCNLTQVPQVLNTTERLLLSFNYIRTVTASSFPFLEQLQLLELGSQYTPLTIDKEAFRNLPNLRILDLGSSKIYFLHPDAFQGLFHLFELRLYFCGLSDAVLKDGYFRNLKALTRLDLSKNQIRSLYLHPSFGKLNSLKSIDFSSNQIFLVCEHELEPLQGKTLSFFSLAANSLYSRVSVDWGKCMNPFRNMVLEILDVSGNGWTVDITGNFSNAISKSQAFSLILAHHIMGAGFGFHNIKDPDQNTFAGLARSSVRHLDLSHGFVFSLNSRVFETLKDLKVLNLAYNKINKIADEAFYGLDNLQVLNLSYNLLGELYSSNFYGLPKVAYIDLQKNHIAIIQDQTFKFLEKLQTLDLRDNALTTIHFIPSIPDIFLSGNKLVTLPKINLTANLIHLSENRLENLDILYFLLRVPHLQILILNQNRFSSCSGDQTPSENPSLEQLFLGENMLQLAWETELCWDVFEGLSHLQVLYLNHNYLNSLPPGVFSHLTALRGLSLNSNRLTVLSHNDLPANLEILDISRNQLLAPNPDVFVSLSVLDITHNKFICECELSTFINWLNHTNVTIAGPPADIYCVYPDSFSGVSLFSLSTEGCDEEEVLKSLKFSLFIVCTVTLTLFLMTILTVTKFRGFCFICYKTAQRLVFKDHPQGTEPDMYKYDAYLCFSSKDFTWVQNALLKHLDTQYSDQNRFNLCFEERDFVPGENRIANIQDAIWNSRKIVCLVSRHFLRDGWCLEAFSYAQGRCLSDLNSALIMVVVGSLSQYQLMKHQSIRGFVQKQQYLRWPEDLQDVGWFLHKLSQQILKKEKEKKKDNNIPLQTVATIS

On to `Cc1ccc(-n2nc3c(N4CCC(C(=O)NCCCN(C)C)CC4)nnc(C)c3c2C)cc1` [Compound No. 5, 1-(3,4-dimethyl-2-(p-tolyl)-2H-pyrazolo[3,4-d]pyridazin-7-yl)-N-(3-(dimethylamino)propyl)piperidine-4-carboxamide], for which the inhibition at 10 µM against TLR-4, on TLR-5 and at human RIG-I (at 10 μM) was at most 50% each time. For the same molecule, the “inhibition of TLR9 activity in mice over time (FIG. 2)” value on mouse TLR9 is given as “inhibition of TLR9 activity”.
Turning to `Cc1ccc(-n2nc3c(N4CCC(CCC(=O)NCCN(C)C)CC4)nnc(C)c3c2C)cc1` [Compound No. 9, 3-(1-(3,4-dimethyl-2-(p-tolyl)-2H-pyrazolo[3,4-d]pyridazin-7-yl)piperidin-4-yl)-N-(2-(dimethylamino)ethyl)propanamide], the inhibition at 10 µM at TLR-4 and against TLR-5 was at most 50% throughout. On human RIG-I (read-out: IC50 against RIG-I), the IC50 (usually the concentration that gives 50% inhibition) was determined as 8.3 µM.
